Key:
[1] = target: Dopamine receptor (Mus musculus) (UniProt P51436+Q8BLD9+Q61616+P61168+P30728); test: Neuroleptic activity determined by its inhibitory effect on apomorphine-induced climbing behavior in mice by intraperitoneal administration; assay type: functional, organism-based
Rattus norvegicus = organism: Rattus norvegicus; test: Cataleptogenic activity was evaluated for the compound as the 50% effective dose required to induce cataleptic effect in rats; assay type: functional
[2] = Therapeutic ratio of ED50 of catalepsy in rats to ED50 of climbing in mouse; assay type: ADME, organism-based; settings: rat and mouse, in vivo
D(2) dopamine receptor [3] = target: T1, D(2) dopamine receptor (Bos taurus, UniProt P20288); test: Displacement of [3H]spiroperidol from bovine caudate nucleus membrane Dopamine receptor D2
Mus musculus [4] = test: Neuroleptic activity determined by its inhibitory effect on apomorphine-induced climbing behavior in mice by intraperitoneal administration. Range is 0.007-0.029; assay type: functional; settings: ip
Mus musculus [5] = test: Neuroleptic activity determined by its inhibitory effect on apomorphine-induced climbing behavior in mice by intraperitoneal administration. Range is 0.037-0.256; assay type: functional; settings: ip
D(2) dopamine receptor [6] = target: T1, D(2) dopamine receptor; test: Binding affinity towards dopamine receptor D2 was determined by displacement of [3H]spiroperidol from bovine nucleus caudate membranes.
[7] = Therapeutic ratio of ED50 of catalepsy to ED50 of climbing in […]; assay type: ADME
Mus musculus [8] = test: Neuroleptic activity determined by its inhibitory effect on apomorphine-induced climbing behavior in mice by intraperitoneal administration. Range is between 0.0033-0.278; assay type: functional; settings: ip
Mus musculus [9] = test: Neuroleptic activity determined by its inhibitory effect on apomorphine-induced climbing behavior in mice by intraperitoneal administration. Range is 0.007-0.250; assay type: functional; settings: ip
Mus musculus [10] = test: Neuroleptic activity determined by its inhibitory effect on apomorphine-induced climbing behavior in mice by intraperitoneal administration. Range is 0.03-0.064; assay type: functional; settings: ip
Mus musculus [11] = test: Neuroleptic activity determined by its inhibitory effect on apomorphine-induced climbing behavior in mice by peroral administration; assay type: functional; settings: po
Mus musculus [12] = organism: Mus musculus; test: animal or person; settings: ip
Description: Neuroleptic activity determined by its inhibitory effect on apomorphine-induced climbing behavior in mice by intraperitoneal administration in experiment 2 Range is 0.05-0.17

Mus musculus [13] = test: Neuroleptic activity determined by its inhibitory effect on apomorphine-induced climbing behavior in mice by intraperitoneal administration. Range is 0.009-0.109; assay type: functional; settings: ip
Mus musculus [14] = test: Neuroleptic activity determined by its inhibitory effect on apomorphine-induced climbing behavior in mice by intraperitoneal administration. Range is 0.008-0.766; assay type: functional; settings: ip
Mus musculus [15] = test: Neuroleptic activity determined by its inhibitory effect on apomorphine-induced climbing behavior in mice by intraperitoneal administration. Range is 0.071-0.206; assay type: functional; settings: ip
Mus musculus [16] = test: Neuroleptic activity determined by its inhibitory effect on apomorphine-induced climbing behavior in mice by intraperitoneal administration. Range is between 0.035-0.192; assay type: functional; settings: ip
Mus musculus [17] = test: Neuroleptic activity determined by its inhibitory effect on apomorphine-induced climbing behavior in mice by intraperitoneal administration in experiment 2. Range is 0.11-0.41; assay type: functional; settings: ip
Mus musculus [18] = test: Neuroleptic activity determined by its inhibitory effect on apomorphine-induced climbing behavior in mice by peroral administration in experiment 1.Range is 0.02-0.42; assay type: functional; settings: po
Mus musculus [19] = test: Neuroleptic activity determined by its inhibitory effect on apomorphine-induced climbing behavior in mice by intraperitoneal administration. Range is 0.040-0.075; assay type: functional; settings: ip
Mus musculus [20] = test: Neuroleptic activity determined by its inhibitory effect on apomorphine-induced climbing behavior in mice by intraperitoneal administration. Range is between 0.009-0.037; assay type: functional; settings: ip
Mus musculus [21] = test: Neuroleptic activity determined by its inhibitory effect on apomorphine-induced climbing behavior in mice by intraperitoneal administration. Range is 0.019-0.092; assay type: functional; settings: ip

T1 sequence (P20288 whole entry): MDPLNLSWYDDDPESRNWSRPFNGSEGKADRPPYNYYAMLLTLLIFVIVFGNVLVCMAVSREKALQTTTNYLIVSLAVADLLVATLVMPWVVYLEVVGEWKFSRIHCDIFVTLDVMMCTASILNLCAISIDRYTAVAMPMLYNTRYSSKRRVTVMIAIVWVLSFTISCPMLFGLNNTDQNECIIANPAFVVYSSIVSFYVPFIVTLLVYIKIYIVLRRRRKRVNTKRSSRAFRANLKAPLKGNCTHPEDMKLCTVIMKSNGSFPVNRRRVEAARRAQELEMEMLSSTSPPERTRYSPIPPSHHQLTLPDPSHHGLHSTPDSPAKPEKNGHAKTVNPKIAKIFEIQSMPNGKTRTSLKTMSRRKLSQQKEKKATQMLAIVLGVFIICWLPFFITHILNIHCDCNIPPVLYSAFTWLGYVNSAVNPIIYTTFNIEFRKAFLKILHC

Cc1c(Cl)ccc2nc(O)n(C3CCN(CC4COc5ccc(F)cc5O4)CC3)c12 (configuration not stated)
ED50 [1]: > 25 mg/kg

Oc1nc2cc(F)ccc2n1C1CCN(CC2COc3cc(F)ccc3O2)CC1 (configuration not stated)
ED50 [1]: 0.63 mg/kg | ED50 (Rattus norvegicus): < 5 mg/kg

O=c1[nH]c2cc(F)ccc2n1C1CCN(CC2COc3cc(F)ccc3O2)CC1 (configuration not stated)
selectivity ratio [2]: < 8 | Ki (D(2) dopamine receptor [3]): 70 nM

Cc1ccc2c(c1)nc(O)n2C1CCN(CC2COc3ccc(F)cc3O2)CC1 (configuration not stated)
ED50 (Mus musculus [4]): 0.014 mg/kg | selectivity ratio [2]: 187 | ED50 (Rattus norvegicus): 2.5 mg/kg | Ki (D(2) dopamine receptor [3]): 150 nM

Cc1cc2c(cc1C)OC(CN1CCC(n3c(O)nc4cc(Cl)ccc43)CC1)CO2 (configuration not stated)
ED50 [1]: 0.8 mg/kg

Oc1nc2ccc(Cl)cc2n1C1CCN(CC2COc3ccc(F)cc3O2)CC1 (configuration not stated)
ED50 [1]: 0.16 mg/kg

Oc1nc2cc(F)ccc2n1C1CCN(CC2COc3ccc(F)cc3O2)CC1 (configuration not stated)
selectivity ratio [2]: 204 | ED50 (Rattus norvegicus): 20 mg/kg | ED50 (Mus musculus [5]): 0.098 mg/kg

Cc1ccc2c(c1)nc(O)n2C1CCN(CC2COc3cc(Cl)c(Cl)cc3O2)CC1 (configuration not stated)
ED50 [1]: 3.6 mg/kg

Oc1nc2cc(C(F)(F)F)ccc2n1C1CCN(CC2COc3ccccc3O2)CC1 (configuration not stated)
ED50 [1]: > 10 mg/kg

Cc1cccc2c1OCC(CN1CCC(n3c(O)nc4cc(Cl)ccc43)CC1)O2 (configuration not stated)
ED50 [1]: 1.3 mg/kg

Oc1nc2cc(Cl)ccc2n1C1CCN(CC2COc3cc(F)ccc3O2)CC1 (configuration not stated)
ED50 [1]: 0.2 mg/kg

Oc1nc2cc(Cl)ccc2n1C1CCN(CC2COc3ccc(Cl)cc3O2)CC1 (configuration not stated)
ED50 [1]: 0.75 mg/kg

Cc1ccc2c(c1)nc(O)n2C1CCN(CC2COc3ccc(Cl)cc3O2)CC1 (configuration not stated)
Ki (D(2) dopamine receptor [6]): 30 nM | selectivity ratio [7]: 11 | ED50 [1]: 0.093 mg/kg | ED50 (Rattus norvegicus): 1 mg/kg

COc1ccc2c(c1)nc(O)n2C1CCN(CC2COc3ccccc3O2)CC1 (configuration not stated)
ED50 (Mus musculus [8]): 0.0096 mg/kg | selectivity ratio [2]: 104 | ED50 (Rattus norvegicus): 1 mg/kg | Ki (D(2) dopamine receptor [3]): 150 nM

Oc1nc2cccnc2n1C1CCN(CC2COc3ccc(F)cc3O2)CC1 (configuration not stated)
ED50 [1]: > 25 mg/kg

Nc1ccc2c(c1)nc(O)n2C1CCN(CC2COc3ccccc3O2)CC1 (configuration not stated)
ED50 [1]: 3.9 mg/kg

Cc1ccc2c(c1)nc(O)n2C1CCN(CC2COc3ccccc3O2)CC1 (configuration not stated)
ED50 (Mus musculus [9]): 0.013 mg/kg | selectivity ratio [2]: 3080 | ED50 (Rattus norvegicus): 40 mg/kg | Ki (D(2) dopamine receptor [3]): 120 nM

Oc1nc2cc(F)ccc2n1C1CCN(CC2COc3ccc(Cl)cc3O2)CC1 (configuration not stated)
ED50 (Mus musculus [10]): 0.044 mg/kg

Cc1c(Cl)ccc2nc(O)n(C3CCN(CC4COc5ccccc5O4)CC3)c12 (configuration not stated)
ED50 [1]: 10 mg/kg

Oc1nc2cc(Cl)ccc2n1C1CCN(CC2COc3ccc(F)cc3O2)CC1 (configuration not stated)
ED50 (Mus musculus [11]): 0.14 mg/kg

Cc1ccc2c(c1)nc(O)n2C1CCN(CC2COc3cc(F)ccc3O2)CC1 (configuration not stated)
ED50 [1]: 0.5 mg/kg

Oc1nc2cc(Cl)c(Cl)cc2n1C1CCN(CC2COc3ccccc3O2)CC1 (configuration not stated)
ED50 [1]: 0.45 mg/kg

O=C(CCCN1CCC(O)(c2ccc(Cl)cc2)CC1)c1ccc(F)cc1 [HALOPERIDOL]
ED50 (Rattus norvegicus): 0.5 mg/kg | ED50 (Mus musculus [12]): 0.09 mg/kg

Oc1nc2ccccc2n1C1CCN(CC2COc3ccccc3O2)CC1 (configuration not stated)
ED50 [1]: 0.7 mg/kg

Oc1nc2cccc(Cl)c2n1C1CCN(CC2COc3ccccc3O2)CC1 (configuration not stated)
ED50 [1]: > 20 mg/kg

Oc1nc2cc(Cl)c(Cl)cc2n1C1CCN(CC2COc3ccc(F)cc3O2)CC1 (configuration not stated)
ED50 [1]: 1.4 mg/kg

Oc1nc2cc(Cl)ccc2n1C1CCN(CC2COc3cc(Cl)c(Cl)cc3O2)CC1 (configuration not stated)
ED50 [1]: 6 mg/kg

CCc1ccc2c(c1)nc(O)n2C1CCN(CC2COc3ccccc3O2)CC1 (configuration not stated)
ED50 [1]: 0.17 mg/kg

Cc1ccc2c(c1)OCC(CN1CCC(n3c(O)nc4cc(C)ccc43)CC1)O2 (configuration not stated)
selectivity ratio [2]: 188 | ED50 (Rattus norvegicus): 6 mg/kg | Ki (D(2) dopamine receptor [3]): 40 nM | ED50 (Mus musculus [13]): 0.032 mg/kg

Cc1ccc2c(c1)nc(O)n2C1CCN(CC2COc3cc(C)c(C)cc3O2)CC1 (configuration not stated)
selectivity ratio [2]: 126 | ED50 (Rattus norvegicus): 10 mg/kg | ED50 (Mus musculus [14]): 0.079 mg/kg | Ki (D(2) dopamine receptor [3]): 45 nM

Cc1ccc2c(c1)OCC(CN1CCC(n3c(O)nc4cc(Cl)ccc43)CC1)O2 (configuration not stated)
ED50 (Mus musculus [15]): 0.121 mg/kg | selectivity ratio [2]: 165 | ED50 (Rattus norvegicus): 20 mg/kg | Ki (D(2) dopamine receptor [3]): 60 nM

Oc1nc2cccc(Cl)c2n1C1CCN(CC2COc3ccc(F)cc3O2)CC1 (configuration not stated)
ED50 [1]: > 25 mg/kg

Oc1nc2cc(Br)ccc2n1C1CCN(CC2COc3ccccc3O2)CC1 (configuration not stated)
ED50 (Mus musculus [16]): 0.082 mg/kg | selectivity ratio [2]: 244 | ED50 (Rattus norvegicus): 20 mg/kg | Ki (D(2) dopamine receptor [3]): 70 nM

O=c1[nH]c2cc(Cl)ccc2n1C1CCN(CC2COc3ccccc3O2)CC1 (configuration not stated) [AXAMOZIDE]
selectivity ratio [2]: > 444 | ED50 (Rattus norvegicus): > 40 mg/kg | Ki (D(2) dopamine receptor [3]): 30 nM | ED50 (Mus musculus [17]): 0.21 mg/kg | ED50 (Mus musculus [18]): 0.09 mg/kg

Oc1nc2cc(F)ccc2n1C1CCN(CC2COc3cc(Cl)c(Cl)cc3O2)CC1 (configuration not stated)
ED50 [1]: 5.5 mg/kg

Oc1nc2cc(C(F)(F)F)ccc2n1C1CCN(CC2COc3ccc(F)cc3O2)CC1 (configuration not stated)
ED50 [1]: > 10 mg/kg

Cc1cc2c(cc1C)OC(CN1CCC(n3c(O)nc4cc(F)ccc43)CC1)CO2 (configuration not stated)
ED50 (Mus musculus [19]): 0.055 mg/kg | selectivity ratio [2]: > 363 | ED50 (Rattus norvegicus): > 20 mg/kg | Ki (D(2) dopamine receptor [3]): 25 nM

Oc1nc2cccnc2n1C1CCN(CC2COc3ccccc3O2)CC1 (configuration not stated)
ED50 [1]: > 10 mg/kg

Oc1nc2cc(-c3ccccc3)ccc2n1C1CCN(CC2COc3ccccc3O2)CC1 (configuration not stated)
ED50 [1]: > 25 mg/kg

Oc1nc2cc(F)ccc2n1C1CCN(CC2COc3ccccc3O2)CC1 (configuration not stated)
ED50 (Mus musculus [20]): 0.019 mg/kg

CC(C)(C)c1ccc2c(c1)nc(O)n2C1CCN(CC2COc3ccccc3O2)CC1 (configuration not stated)
ED50 [1]: > 25 mg/kg

Cc1cccc2c1OCC(CN1CCC(n3c(O)nc4cc(F)ccc43)CC1)O2 (configuration not stated)
ED50 (Mus musculus [21]): 0.043 mg/kg | selectivity ratio [2]: 186 | ED50 (Rattus norvegicus): 8 mg/kg | Ki (D(2) dopamine receptor [3]): 8 nM

Oc1nc2ccc(Cl)cc2n1C1CCN(CC2COc3ccccc3O2)CC1 (configuration not stated)
ED50 [1]: 0.11 mg/kg
